Our source for the IC50 values is US10266526B2, “Substituted 1,2,3-triazoles as SMYD inhibitors for treating cancer” (EPIZYME, INC., priority 2014, dated 2019).

The test has as its target SMYD3 (Homo sapiens (Human), UniProt Q9H7B4). Nature of the test: SMYD3 biochemical assay (SMYD3 enzyme assay on MEKK2 protein substrate, 3H-SAM scintillation proximity assay). The note with it: read-out: SMYD3 Biochem IC50 (μM)*. An excerpt:
S-adenosylmethionine (SAM), S-adenosylhomocysteine (SAH), Tris, Tween20, dimethylsulfoxide (DMSO), bovine skin gelatin (BSG), and Tris(2-carboxyethyl)phosphine hydrochloride solution (TCEP) were purchased from Sigma-Aldrich at the highest level of purity possible. ^3H-SAM was purchase from American Radiolabeled Chemicals with a specific activity of 80 Ci/mmol. 384-well opaque white OptiPlates and SPA beads (Perkin Elmer, catalog # RPNQ0013) were purchased from PerkinElmer.
N-terminally GST-tagged MEKK2 (MAP3K2) protein corresponding to reference sequence AAF63496.3 was purchased from Life Technologies (catalog # PV4010). This protein was expressed in High Five insect cells and purified to >85% purity. Protein identity was confirmed by MS/MS analysis after proteolytic digestion. The protein sequence used was:
Full-length human SMYD3 isoform 1 (BAB86333) was inserted into a modified pET21b plasmid containing a His6 tag and TEV and SUMO cleavage sites.
E. coli (BL21 codonplus RIL strain, Stratagene) were transformed with plasmid pEPZ553 by mixing competent cells and plasmid DNA and incubating on ice for 30 minutes followed by heat shock at 42° C. for 1 minute and cooling on ice for 2 minutes. Transformed cells were grown and selected on LB agar with 100 μg/mL ampicillin and 17 μg/mL chloramphenicol at 37° C. overnight. A single clone was used to inoculate 200 mL of LB medium with 100 μg/mL ampicillin and 17 μg/mL chloramphenicol and incubated at 37° C. on an orbital shaker at 180 rpm. Once in log growth, the culture was diluted 1:100 into 2 L of LB medium and grown until OD600 was about 0.3 after which the culture was incubated at 15° C. and 160 rpm. Once OD600 reached about 0.4, IPTG was added to a final concentration of 0.1 mM and the cells were grown overnight at 15° C. and 160 rpm. Cells were harvested by centrifugation at 8000 rpm, for 4 minutes at 4° C. and stored at −80° C. for purification.
The column was washed with Buffer B (Buffer A plus 20 mM imidazole) and His-tagged SMYD3 was eluted with Buffer C (Buffer A plus 300 mM imidazole). The His tag, TEV and SUMO cleavage sites were removed generating native SMYD3 by addition of ULP1 protein at a ratio of 1:200 (ULP1:SMYD3). Imidazole was removed by dialysis overnight in Buffer A. The dialyzed solution was applied to a second Nickel column and the native SMYD3 protein was collected from the column flow-through. The flow-through was dialyzed in Buffer D (25 mM Tris, 5% glycerol, 5 mM β-mercaptoethanol, 50 mM NaCl, pH7.8) and ULP1 was removed using a Q sepharose fast flow column.
General Procedure for SMYD3 Enzyme Assays on MEKK2 Protein Substrate
The assays were all performed in a buffer consisting of 25 mM Tris-Cl pH 8.0, 1 mM TCEP, 0.005% BSG, and 0.005% Tween 20, prepared on the day of use. […] DMSO (1 ul) was added to Columns 11, 12, 23, 24, rows A-H for the maximum signal control and 1 ul of SAH, a known product and inhibitor of SMYD3, was added to columns 11, 12, 23, 24, rows I-P for the minimum signal control. A cocktail (40 ul) containing the SMYD3 enzyme was added by Multidrop Combi (Thermo-Fisher). The compounds were allowed to incubate with SMYD3 for 30 min at room temperature, then a cocktail (10 ul) containing SAM and MEKK2 was added to initiate the reaction (final volume=51 ul). […] The assays were stopped by the addition of non-radiolabeled SAM (10 ul) to a final concentration of 100 uM, which dilutes the ^3H-SAM to a level where its incorporation into MEKK2 is no longer detectable. Radiolabeled MEKK2 was detected using a scintillation proximity assay (SPA). 10 uL of a 10 mg/mL solution of SPA beads in 0.5 M citric acid was added and the plates centrifuged at 600 rpm for 1 min to precipitate the radiolabeled MEKK2 onto the SPA beads.

Chain of SMYD3 (Q9H7B4 whole entry): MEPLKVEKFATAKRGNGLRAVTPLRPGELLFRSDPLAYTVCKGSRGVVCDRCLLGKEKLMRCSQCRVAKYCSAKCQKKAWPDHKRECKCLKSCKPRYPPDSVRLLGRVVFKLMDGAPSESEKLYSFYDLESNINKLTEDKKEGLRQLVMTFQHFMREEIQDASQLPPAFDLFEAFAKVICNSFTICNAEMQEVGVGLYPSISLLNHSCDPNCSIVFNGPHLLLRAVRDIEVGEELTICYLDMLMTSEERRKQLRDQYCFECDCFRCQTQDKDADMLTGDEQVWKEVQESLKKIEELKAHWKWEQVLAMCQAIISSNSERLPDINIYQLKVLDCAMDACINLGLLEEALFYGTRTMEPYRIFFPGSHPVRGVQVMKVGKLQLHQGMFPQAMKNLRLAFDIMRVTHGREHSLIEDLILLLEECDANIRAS

A word on the IC50: it is the concentration that inhibits the measured activity by half. In the case of `Cc1cc2[nH]c(C(=O)N[C@H]3CC[C@H](N)CC3)cc2o1` [compound 57, N-((1r,4r)-4-aminocyclohexyl)-2-methyl-4H-furo[3,2-b]pyrrole-5-carboxamide], the concentration for half-maximal inhibition (IC50) worked out at 134 µM.
On to `Cc1cc2[nH]c(C(=O)NC3CCNCC3)cc2o1` [compound 58, 2-methyl-N-(piperidin-4-yl)-4H-furo[3,2-b]pyrrole-5-carboxamide], for which the IC50 stood at 76.1 µM.
Then `CCc1ncc(C(=O)N[C@H]2CC[C@H](N)CC2)s1` [compound 59, N-((1r,4r)-4-aminocyclohexyl)-2-ethylthiazole-5-carboxamide], with 184 µM; and `CCc1ncc(C(=O)NC(c2ccccc2)C2CCNCC2)s1` (centres unmarked) [compound 60, 2-ethyl-N-(phenyl(piperidin-4-yl)methyl)thiazole-5-carboxamide], with 150 µM.
`CCc1ncc(C(=O)Nc2ccc(CN)cc2)s1` [compound 61, N-(4-(aminomethyl)phenyl)-2-ethylthiazole-5-carboxamide]: the half-inhibitory concentration (IC50) came to 114 µM.
Then `CC(CC(=O)N[C@H]1CC[C@H](N)CC1)C1CC1` (some centres unmarked) [compound 62, N-((1r,4r)-4-aminocyclohexyl)-3-cyclopropylbutanamide], with 155 µM.
The result for `CC(CC(=O)NC(c1ccccc1)C1CCNCC1)C1CC1` (centres unmarked) [compound 63, 3-cyclopropyl-N-(phenyl(piperidin-4-yl)methyl)butanamide] reads 131 µM; that for `CC(=O)c1c[nH]c(C(=O)N[C@H]2CC[C@H](N)CC2)c1` [compound 64, 4-acetyl-N-((1r,4r)-4-aminocyclohexyl)-1H-pyrrole-2-carboxamide], 134 µM.
The result for `CC(=O)c1c[nH]c(C(=O)NC2CCNCC2)c1` [compound 65, 4-acetyl-N-(piperidin-4-yl)-1H-pyrrole-2-carboxamide] reads 45.8 µM.
Turning to `CC(=O)c1c[nH]c(C(=O)Nc2ccc(CN)cc2)c1` [compound 66, 4-acetyl-N-(4-(aminomethyl)phenyl)-1H-pyrrole-2-carboxamide], the concentration for half-maximal inhibition (IC50) was 60.9 µM.
On to `Cn1nc(O)cc1C(=O)N[C@H]1CC[C@H](N)CC1` [compound 67, N-((1r,4r)-4-ammocyclohexyl)-3-hydroxy-1-methyl-1H-pyrazole-5-carboxamide], for which the IC50 turned out to be 129 µM.
`O=C1Cc2cc(C(=O)NC3CCNCC3)cnc2N1` [compound 68, 2-oxo-N-(piperidin-4-yl)-2,3-dihydro-1H-pyrrolo[2,3-b]pyridine-5-carboxamide]: the IC50 was 86.1 µM.
Then `Cn1nc(O)cc1C(=O)NC1CCNCC1` [compound 69, 3-hydroxy-1-methyl-N-(piperidin-4-yl)-1H-pyrazole-5-carboxamide], with 19.7 µM; and `N[C@H]1CC[C@H](NC(=O)c2ccc3c(c2)NC(=O)CN3)CC1` [compound 70, N-((1r,4r)-4-aminocyclohexyl)-3-oxo-1,2,3,4-tetrahydroquinoxaline-6-carboxamide], with 77.5 µM.
With `N[C@H]1CC[C@H](NC(=O)c2ccc3c(c2)NC(=O)C3)CC1` [compound 71, N-((1r,4r)-4-aminocyclohexyl)-2-oxoindoline-6-carboxamide], the IC50 is 89.3 µM.
The result for `N[C@@H](Cc1ccc(O)cc1)C(=O)N1CCC(NC(=O)c2ccc3c(c2)NC(=O)C3)CC1` [compound 72, N-(1-(L-tyrosyl)piperidin-4-yl)-2-oxoindoline-6-carboxamide] reads 35.5 µM; that for `N[C@H]1CC[C@H](NC(=O)c2ccc3[nH]c(=O)[nH]c3c2)CC1` [compound 73, N-((1r,4r)-4-aminocyclohexyl)-2-oxo-2,3-dihydro-1H-benzo[d]imidazole-5-carboxamide], 13.7 µM.
Then `N[C@H]1CC[C@H](NC(=O)c2ccc3c(c2)CCC(=O)N3)CC1` [compound 74, N-((1r,4r)-4-aminocyclohexyl)-2-oxo-1,2,3,4-tetrahydroquinoline-6-carboxamide], with 65.8 µM; and `Nc1ccc2cc(C(=O)N[C@H]3CC[C@H](N)CC3)ccc2c1` [compound 75, 6-amino-N-((1r,4r)-4-aminocyclohexyl)-2-naphthamide], with 62.5 µM.
Then `N[C@H]1CC[C@H](NC(=O)c2ccc3nc(O)ccc3c2)CC1` [compound 76, N-((1r,4r)-4-aminocyclohexyl)-2-hydroxyquinoline-6-carboxamide], with 115 µM; and `CCC(=O)c1c[nH]c(C(=O)NC(c2ccccc2)C2CCNCC2)c1` (centres unmarked) [compound 77, N-(phenyl(piperidin-4-yl)methyl)-4-propionyl-1H-pyrrole-2-carboxamide], with 10 µM; and `CCS(=O)(=O)C(C)C(=O)N[C@H]1CC[C@H](N)CC1` (some centres unmarked) [compound 78, N-((1r,4r)-4-aminocyclohexyl)-2-(ethylsulfonyl)propanamide], with 35.2 µM.
For the compound `CN(C)Cc1ccc(C(=O)N[C@H]2CC[C@H](N)CC2)o1` [compound 79, N-((1r,4r)-4-aminocyclohexyl)-5-((dimethylamino)methyl)furan-2-carboxamide], the IC50 stood at 38.9 µM.
The result for `Nc1nc(C(=O)NC(c2ccccc2)C2CCNCC2)co1` (centres unmarked) [compound 80, 2-amino-N-(phenyl(piperidin-4-yl)methyl)oxazole-4-carboxamide] reads 97.1 µM.
Then `Cc1cc2[nH]c(C(=O)Nc3ccc(CN)cc3)cc2o1` [compound 81, N-(4-(aminomethyl)phenyl)-2-methyl-4H-furo[3,2-b]pyrrole-5-carboxamide], with 25.9 µM.
Then `CN1C(=O)Cc2cc(C(=O)NC3CCN(C(=O)[C@@H](N)Cc4ccc(O)cc4)CC3)ccc21` [compound 82, N-(1-(L-tyrosyl)piperidin-4-yl)-1-methyl-2-oxoindoline-5-carboxamide], with 8.7 µM; and `CN1C(=O)Cc2cc(C(=O)NC3CCN(C(=O)[C@@H](N)Cc4c[nH]c5ccccc45)CC3)ccc21` [compound 83, N-(1-(L-tryptophyl)piperidin-4-yl)-1-methyl-2-oxoindoline-5-carboxamide], with 12.9 µM.
On to `CN1C(=O)Cc2cc(C(=O)N[C@H]3CC[C@H](N)CC3)ccc21` [compound 84, N-((1r,4r)-4-aminocyclohexyl)-1-methyl-2-oxoindoline-5-carboxamide], for which the IC50 turned out to be 16.7 µM.
In the case of `COc1cc(C(=O)N[C@H]2CC[C@H](N)CC2)cc2c1OCC(=O)N2` [compound 85, N-((1r,4r)-4-aminocyclohexyl)-8-methoxy-3-oxo-3,4-dihydro-2H-benzo[b][1,4]oxazine-6-carboxamide], the IC50 came out at 184 µM.
The result for `CC(NC(=O)c1ccc2c(c1)CC(=O)N2)C1CCN(C(=O)[C@@H](C)N)CC1` (stereo partly drawn) [compound 87, N-(1-(1-(D-alanyl)piperidin-4-yl)ethyl)-2-oxoindoline-5-carboxamide] reads 9.37 µM; that for `CN1C(=O)Cc2ccc(C(=O)NC3CCN(C(=O)[C@@H](N)Cc4ccc(O)cc4)CC3)cc21` [compound 88, N-(1-(L-tyrosyl)piperidin-4-yl)-1-methyl-2-oxoindoline-6-carboxamide], 193 µM; that for `N[C@H]1CC[C@H](NC(=O)c2ccc3[nH]c(=O)oc3c2)CC1` [compound 90, N-((1r,4r)-4-aminocyclohexyl)-2-oxo-2,3-dihydrobenzo[d]oxazole-6-carboxamide], 9.76 µM.
